Experimental data reported in PubChem BioAssay AID248 (DTP/NCI, 2004).
Values joined by “and” are separate entries in the source; they are usually repeats but may differ in a detail not shown here. Equal values may be shown once. Toxic doses and inconclusive results are not listed. Cut-off read from the data, not from the text of the source: active = T/C of 150% or more; inactive = T/C below 125%.

Test system: L1210 leukemia ip in BDF1 mice, survival T/C
Assay: NCI In Vivo Anticancer Drug Screen. Data for tumor model L1210 Leukemia (intraperitoneal) in B6D2F1 (BDF1) mice
Settings: endpoint: mean survival time, higher = longer survival
Summary of the method: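 Transplantable tumor model; survival measured in treated vs vehicle control mice. Value = treated/control.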

[1] = dose: 100.0 mg/kg/injection, schedule: Q04DX002 (ip), vehicle: Klucel (hydroxypropylcellulose) (HPC)
[2] = dose: 200.0 mg/kg/injection, schedule: Q04DX002 (ip), vehicle: Klucel (hydroxypropylcellulose) (HPC)
[3] = dose: 400.0 mg/kg/injection, schedule: Q04DX002 (ip), vehicle: Klucel (hydroxypropylcellulose) (HPC)
[4] = dose: 100.0 mg/kg/injection, schedule: Q04DX003 (ip), vehicle: saline
[5] = dose: 200.0 mg/kg/injection, schedule: Q04DX003 (ip), vehicle: saline
[6] = dose: 400.0 mg/kg/injection, schedule: Q04DX003 (ip), vehicle: saline
[7] = dose: 25.0 mg/kg/injection, schedule: Q04DX003 (ip), vehicle: saline
[8] = dose: 50.0 mg/kg/injection, schedule: Q04DX003 (ip), vehicle: saline
[9] = dose: 100.0 mg/kg/injection, schedule: Q01DX009 (ip), vehicle: Klucel (hydroxypropylcellulose) (HPC)
[10] = dose: 100.0 mg/kg/injection, schedule: Q04DX003 (ip), vehicle: Klucel (hydroxypropylcellulose) (HPC)
[11] = dose: 200.0 mg/kg/injection, schedule: Q01DX009 (ip), vehicle: Klucel (hydroxypropylcellulose) (HPC)
[12] = dose: 200.0 mg/kg/injection, schedule: Q04DX003 (ip), vehicle: Klucel (hydroxypropylcellulose) (HPC)
[13] = dose: 400.0 mg/kg/injection, schedule: Q01DX009 (ip), vehicle: Klucel (hydroxypropylcellulose) (HPC)
[14] = dose: 400.0 mg/kg/injection, schedule: Q04DX003 (ip), vehicle: Klucel (hydroxypropylcellulose) (HPC)
[15] = dose: 100.0 mg/kg/injection, schedule: Q01DX001 (ip), vehicle: carboxymethylcellulose (CMC)
[16] = dose: 25.0 mg/kg/injection, schedule: Q04DX002 (ip), vehicle: saline with Tween-80
[17] = dose: 100.0 mg/kg/injection, schedule: Q01DX009 (ip), vehicle: saline with Tween-80
[18] = dose: 100.0 mg/kg/injection, schedule: Q04DX003 (ip), vehicle: saline with Tween-80
[19] = dose: 200.0 mg/kg/injection, schedule: Q01DX009 (ip), vehicle: saline with Tween-80
[20] = dose: 200.0 mg/kg/injection, schedule: Q04DX003 (ip), vehicle: saline with Tween-80
[21] = dose: 400.0 mg/kg/injection, schedule: Q01DX009 (ip), vehicle: saline with Tween-80
[22] = dose: 50.0 mg/kg/injection, schedule: Q04DX002 (ip), vehicle: saline with Tween-80
[23] = dose: 100.0 mg/kg/injection, schedule: Q04DX002 (ip), vehicle: saline with Tween-80
[24] = dose: 200.0 mg/kg/injection, schedule: Q04DX002 (ip), vehicle: saline with Tween-80
[25] = dose: 25.0 mg/kg/injection, schedule: Q01DX009 (ip), vehicle: saline with Tween-80
[26] = dose: 50.0 mg/kg/injection, schedule: Q01DX009 (ip), vehicle: saline with Tween-80
[27] = dose: 100.0 mg/kg/injection, schedule: Q01DX009 (ip), vehicle: saline
[28] = dose: 200.0 mg/kg/injection, schedule: Q01DX009 (ip), vehicle: saline
[29] = dose: 100.0 mg/kg/injection, schedule: Q01DX001 (ip), vehicle: saline with Tween-80
[30] = dose: 200.0 mg/kg/injection, schedule: Q01DX001 (ip), vehicle: saline with Tween-80
[31] = dose: 400.0 mg/kg/injection, schedule: Q01DX001 (ip), vehicle: saline with Tween-80

Measured: T/C

O=C1c2c(c(-c3ccccc3)c3ccccc3c2-c2ccccc2)C(=O)C2C(c3ccccc3)c3ccccc3C(c3ccccc3)C12 (configuration not stated)
inactive: [1] 113 % of control | [2] 106 % of control | [3] 98 % of control

C=CCCCCCCCCC(=O)N/N=C/c1cccc(OC)c1OC
inactive: dose: 100.0 mg/kg/injection, schedule: Q04DX002 (ip), vehicle: saline 95 % of control | dose: 200.0 mg/kg/injection, schedule: Q04DX002 (ip), vehicle: saline 103 % of control | dose: 400.0 mg/kg/injection, schedule: Q04DX002 (ip), vehicle: saline 106 % of control

O=C1CCC2(C/C1=N\Nc1ccccc1)OCCO2
inactive: [4] 100 % of control | [5] 96 % of control | [6] 100 % of control

CNc1c([N+](=O)[O-])ncn1C
inactive: dose: 12.5 mg/kg/injection, schedule: Q04DX003 (ip), vehicle: saline 98 % of control | [7] 94 % of control | [8] 91 % of control | [4] 97 % of control

CC(=O)Nc1ccc(N=Nc2ccccc2)cc1F
inactive: [9] 94 % of control | [10] 98 % of control | [11] 97 % of control | [12] 94 % of control | [13] 97 % of control | [14] 91 % of control

N#Cc1cnc(N)c(C#N)c1
inactive: dose: 74.0 mg/kg/injection, schedule: Q01DX009 (ip), vehicle: Klucel (hydroxypropylcellulose) (HPC) 98 % of control | dose: 150.0 mg/kg/injection, schedule: Q01DX009 (ip), vehicle: Klucel (hydroxypropylcellulose) (HPC) 100 % of control

CC(C)(CO)NCC1CCCC(CNC(C)(C)CO)C1 (configuration not stated)
inactive: dose: 50.0 mg/kg/injection, schedule: Q01DX001 (ip), vehicle: carboxymethylcellulose (CMC) 92 % of control | [15] 101 % of control

CC(C)(O)C(Cc1ccccc1)c1ccccc1 (configuration not stated)
inactive: dose: 6.25 mg/kg/injection, schedule: Q04DX002 (ip), vehicle: saline with Tween-80 91 % of control | dose: 12.5 mg/kg/injection, schedule: Q04DX002 (ip), vehicle: saline with Tween-80 98 % of control | [16] 102 % of control

COC(=O)c1cc(O)c(C(=O)OC)s1
inactive: [9] 101 % of control | [11] 98 % of control | [13] 95 % of control

CCOC(=O)N(CC)c1ccccc1
inactive: [9] 103 % of control | [4] 88 % of control | [11] 107 % of control | [5] 101 % of control | [13] 102 % of control | [6] 98 % of control

COC(OC)c1nc(N)[nH]c(=O)c1Cc1ccc(C)c2ccccc12
inactive: [17] 96 % of control | [18] 103 % of control | [19] 90 % of control | [20] 97 % of control | [21] 90 % of control | dose: 400.0 mg/kg/injection, schedule: Q04DX003 (ip), vehicle: saline with Tween-80 92 % of control

O=C(Nc1ccc(Cl)c(Cl)c1)c1ccc(Cl)c(Cl)c1
inactive: [22] 94 % of control | [23] 91 % of control | [24] 91 % of control

CCOc1ccc(/C=N/NC(=O)c2ccccc2N)cc1OC
inactive: [1] 97 % of control | [2] 102 % of control | [3] 105 % of control

CCOP(=O)(CSc1ccccc1)OCC
inactive: [25] 93 % of control | [16] 107 % of control | [26] 100 % of control | [22] 107 % of control | [23] 86 % of control

O=C(O)C(Sc1ccc(Cl)cc1)Sc1ccc(Cl)cc1
inactive: dose: 50.0 mg/kg/injection, schedule: Q04DX003 (ip), vehicle: Klucel (hydroxypropylcellulose) (HPC) 103 % of control | [10] 103 % of control | [12] 95 % of control

C/C(=C/c1ccccc1)S(=O)(=O)c1ccccc1
inactive: dose: 100.0 mg/kg/injection, schedule: Q01DX001 (ip), vehicle: saline 105 % of control | [27] 91 % of control | dose: 200.0 mg/kg/injection, schedule: Q01DX001 (ip), vehicle: saline 100 % of control | [28] 94 % of control | dose: 400.0 mg/kg/injection, schedule: Q01DX001 (ip), vehicle: saline 105 % of control | dose: 400.0 mg/kg/injection, schedule: Q01DX009 (ip), vehicle: saline 93 % of control

c1ccc(C2OC3(CCCCC3)C[N+]23CCCC3)cc1 (configuration not stated)
inactive: [25] 109 % of control | [26] 107 % of control | [18] 97 % of control

COc1ccc(NC2=NCCS2)cc1
inactive: [26] 95 % of control | [17] 95 % of control | [19] 96 % of control

CSc1ccc(NC(=O)SCc2ccccc2)cc1
inactive: [9] 97 % of control | [11] 95 % of control | [13] 95 % of control

COc1cc(C(O)CN)cc(OC)c1OC (configuration not stated)
inactive: dose: 25.0 mg/kg/injection, schedule: Q01DX009 (ip), vehicle: saline 100 % of control | [7] 88 % of control | dose: 50.0 mg/kg/injection, schedule: Q01DX009 (ip), vehicle: saline 94 % of control | [8] 94 % of control | [27] 104 % of control | [4] 88 % of control | [28] 110 % of control | [5] 94 % of control | [6] 91 % of control

c1ccc2c(c1)NC(C1Nc3ccccc3S1)S2 (configuration not stated)
inactive: dose: 100.0 mg/kg/injection, schedule: Q01DX001 (ip), vehicle: acetone 90 % of control | [10] 93 % of control | dose: 200.0 mg/kg/injection, schedule: Q01DX001 (ip), vehicle: acetone 88 % of control | [12] 93 % of control | dose: 400.0 mg/kg/injection, schedule: Q01DX001 (ip), vehicle: acetone 88 % of control | [14] 90 % of control

COc1ccc(C2NCCCC2c2ccccc2)cc1 (configuration not stated)
inactive: [15] 102 % of control | dose: 200.0 mg/kg/injection, schedule: Q01DX001 (ip), vehicle: carboxymethylcellulose (CMC) 94 % of control | dose: 400.0 mg/kg/injection, schedule: Q01DX001 (ip), vehicle: carboxymethylcellulose (CMC) 110 % of control

CNC(=O)OCCOc1ccccc1
inactive: [29] 109 % of control | [17] 105 % of control and 116 % of control | [23] 97 % of control and 89 % of control | [30] 108 % of control | [19] 96 % of control and 101 % of control | [24] 94 % of control and 90 % of control | [31] 111 % of control | [21] 108 % of control and 110 % of control | dose: 400.0 mg/kg/injection, schedule: Q04DX002 (ip), vehicle: saline with Tween-80 119 % of control and 87 % of control

OC1CC2C3CCC(C3)C2C1O (configuration not stated)
inactive: [18] 106 % of control | [20] 90 % of control

CCOC(=O)C(=O)Nc1ccc(Cl)cc1
inactive: [29] 96 % of control | [30] 96 % of control | [31] 95 % of control

COc1ccc(-n2cnc3c(=O)[nH]c(N)nc32)cc1NC(=O)Nc1cccc(S(=O)(=O)F)c1
inactive: dose: 50.0 mg/kg/injection, schedule: Q01DX001 (ip), vehicle: saline with Tween-80 95 % of control | [29] 92 % of control | [30] 100 % of control

CSc1ccc(OC(=O)Nc2cccc(F)c2)cc1
inactive: dose: 100.0 mg/kg/injection, schedule: Q01DX001 (ip), vehicle: Klucel (hydroxypropylcellulose) (HPC) 88 % of control | [9] 105 % of control and 109 % of control | [1] 101 % of control and 91 % of control | [10] 104 % of control and 124 % of control | dose: 200.0 mg/kg/injection, schedule: Q01DX001 (ip), vehicle: Klucel (hydroxypropylcellulose) (HPC) 101 % of control | [11] 100 % of control and 101 % of control | [2] 94 % of control and 98 % of control | [12] 107 % of control and 120 % of control | dose: 400.0 mg/kg/injection, schedule: Q01DX001 (ip), vehicle: Klucel (hydroxypropylcellulose) (HPC) 104 % of control | [13] 109 % of control and 90 % of control | [3] 93 % of control and 94 % of control | [14] 104 % of control
